In the supplement of paper PMC10307832 one finds relative viability data, which are given here for eight cell lines.

Holding throughout (assay): relative viability (nuclei count vs DMSO), 5 days (fraction); higher = more cells survive
Compound in the experiment “Omipalisib + Pemetrexed”: COc1ncc(-c2ccc3nccc(-c4ccnnc4)c3c2)cc1NS(=O)(=O)c1ccc(F)cc1F [Omipalisib] + Nc1nc2[nH]cc(CCc3ccc(C(=O)N[C@@H](CCC(=O)O)C(=O)O)cc3)c2c(=O)[nH]1 [Pemetrexed] (partner 0.2 µM)
An outline of the steps:
(§1)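 Relative viability equals treated-well nuclei counts divided by vehicle-well nuclei counts. Counts came from 4× images of lung cancer cell lines grown in 1536-well plates for 5 days after pin-tool dosing on the day after seeding. Dosing used one drug alone or a fixed anchor-drug dose plus five library-drug doses (not always all listed) in √10 steps, and values are medians of duplicate plates.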

Compound in the experiment “Omipalisib + Navitoclax”: COc1ncc(-c2ccc3nccc(-c4ccnnc4)c3c2)cc1NS(=O)(=O)c1ccc(F)cc1F [Omipalisib] + CC1(C)CCC(c2ccc(Cl)cc2)=C(CN2CCN(c3ccc(C(=O)NS(=O)(=O)c4ccc(N[C@H](CCN5CCOCC5)CSc5ccccc5)c(S(=O)(=O)C(F)(F)F)c4)cc3)CC2)C1 [Navitoclax] (partner 0.5 µM)
An outline of the steps: as §1

Compound in the experiment “Omipalisib + Tozasertib”: COc1ncc(-c2ccc3nccc(-c4ccnnc4)c3c2)cc1NS(=O)(=O)c1ccc(F)cc1F [Omipalisib] + Cc1cc(Nc2cc(N3CCN(C)CC3)nc(Sc3ccc(NC(=O)C4CC4)cc3)n2)n[nH]1 [Tozasertib] (partner 0.1 µM)
A digest of the protocol: as §1

Compound in the experiment “Omipalisib + Crizotinib”: COc1ncc(-c2ccc3nccc(-c4ccnnc4)c3c2)cc1NS(=O)(=O)c1ccc(F)cc1F [Omipalisib] + C[C@@H](Oc1cc(-c2cnn(C3CCNCC3)c2)cnc1N)c1c(Cl)ccc(F)c1Cl [Crizotinib] (partner 1 µM)
A digest of the protocol: as §1

Compound in the experiment “Omipalisib + AZD7762”: COc1ncc(-c2ccc3nccc(-c4ccnnc4)c3c2)cc1NS(=O)(=O)c1ccc(F)cc1F [Omipalisib] + NC(=O)Nc1cc(-c2cccc(F)c2)sc1C(=O)N[C@H]1CCCNC1 [AZD7762] (partner 0.2 µM)
An outline of the steps: as §1

Compound in the experiment “Omipalisib + Olaparib”: COc1ncc(-c2ccc3nccc(-c4ccnnc4)c3c2)cc1NS(=O)(=O)c1ccc(F)cc1F [Omipalisib] + O=C(c1cc(Cc2n[nH]c(=O)c3ccccc23)ccc1F)N1CCN(C(=O)C2CC2)CC1 [Olaparib] (partner 8 µM)
A digest of the protocol:
as §1

In the case of HCC-827, the relative viability in the experiment with Omipalisib + Pemetrexed (first compound 0.0003 µM) was determined as 0.242; with Omipalisib + Pemetrexed (first compound 0.003 µM), 0.282; with Omipalisib + Pemetrexed (first compound 0.03 µM) it was 0.191; with Omipalisib + Navitoclax (first compound 0.0003 µM) it was 0.979; with Omipalisib + Navitoclax (first compound 0.003 µM) it was 0.97; with Omipalisib + Navitoclax (first compound 0.03 µM), 0.651. Moreover, the relative viability with Omipalisib + Tozasertib (first compound 0.0003 µM) was determined as 0.453; with Omipalisib + Tozasertib (first compound 0.003 µM), 0.365; in the experiment with Omipalisib + Tozasertib (first compound 0.03 µM) it was 0.187; in the experiment with Omipalisib + Crizotinib (first compound 0.0003 µM), 0.952; in the experiment with Omipalisib + Crizotinib (first compound 0.003 µM), 0.885; with Omipalisib + Crizotinib (first compound 0.03 µM), 0.373. The relative viability was determined as 0.239 with Omipalisib + AZD7762 (first compound 0.0003 µM); 0.213 with Omipalisib + AZD7762 (first compound 0.003 µM); 0.143 in the experiment with Omipalisib + AZD7762 (first compound 0.03 µM); 0.593 with Omipalisib + Olaparib (first compound 0.0003 µM); 0.6 in the experiment with Omipalisib + Olaparib (first compound 0.003 µM); 0.243 with Omipalisib + Olaparib (first compound 0.03 µM).

As to HCC-366, the relative viability with Omipalisib + Pemetrexed (first compound 0.0003 µM) turned out to be 0.214; in the experiment with Omipalisib + Pemetrexed (first compound 0.003 µM) it was 0.257; with Omipalisib + Pemetrexed (first compound 0.03 µM) it was 0.171; with Omipalisib + Navitoclax (first compound 0.0003 µM), 1.03; with Omipalisib + Navitoclax (first compound 0.003 µM), 0.341; with Omipalisib + Navitoclax (first compound 0.03 µM), 0.12. Besides, the relative viability stood at 0.113 with Omipalisib + Tozasertib (first compound 0.0003 µM); 0.0977 with Omipalisib + Tozasertib (first compound 0.003 µM); 0.0346 with Omipalisib + Tozasertib (first compound 0.03 µM); 0.365 with Omipalisib + Crizotinib (first compound 0.0003 µM); 0.0929 in the experiment with Omipalisib + Crizotinib (first compound 0.003 µM); 0.041 with Omipalisib + Crizotinib (first compound 0.03 µM). The relative viability in the experiment with Omipalisib + AZD7762 (first compound 0.0003 µM) worked out at 0.288; with Omipalisib + AZD7762 (first compound 0.003 µM) it was 0.208; with Omipalisib + AZD7762 (first compound 0.03 µM) it was 0.184; with Omipalisib + Olaparib (first compound 0.0003 µM), 0.327; in the experiment with Omipalisib + Olaparib (first compound 0.003 µM), 0.137; with Omipalisib + Olaparib (first compound 0.03 µM), 0.0831.

NCI-H2405: the relative viability was determined as 1.12 with Omipalisib + Pemetrexed (first compound 0.0003 µM); 0.718 with Omipalisib + Pemetrexed (first compound 0.003 µM); 0.444 in the experiment with Omipalisib + Pemetrexed (first compound 0.03 µM); 0.812 with Omipalisib + Navitoclax (first compound 0.0003 µM); 0.618 with Omipalisib + Navitoclax (first compound 0.003 µM); 0.323 with Omipalisib + Navitoclax (first compound 0.03 µM). Also, the relative viability with Omipalisib + Tozasertib (first compound 0.0003 µM) was 0.76; with Omipalisib + Tozasertib (first compound 0.003 µM), 0.648; in the experiment with Omipalisib + Tozasertib (first compound 0.03 µM), 0.359; with Omipalisib + Crizotinib (first compound 0.0003 µM), 0.852; in the experiment with Omipalisib + Crizotinib (first compound 0.003 µM) it was 0.769; with Omipalisib + Crizotinib (first compound 0.03 µM), 0.408. The relative viability amounted to 0.725 with Omipalisib + AZD7762 (first compound 0.0003 µM); 0.484 with Omipalisib + AZD7762 (first compound 0.003 µM); 0.312 with Omipalisib + AZD7762 (first compound 0.03 µM); 0.854 with Omipalisib + Olaparib (first compound 0.0003 µM); 0.679 in the experiment with Omipalisib + Olaparib (first compound 0.003 µM); 0.388 in the experiment with Omipalisib + Olaparib (first compound 0.03 µM).

Take NCI-H23: the relative viability came to 0.692 with Omipalisib + Pemetrexed (first compound 0.0003 µM); 0.44 with Omipalisib + Pemetrexed (first compound 0.003 µM); 0.374 with Omipalisib + Pemetrexed (first compound 0.03 µM); 0.748 in the experiment with Omipalisib + Navitoclax (first compound 0.0003 µM); 0.421 with Omipalisib + Navitoclax (first compound 0.003 µM); 0.35 with Omipalisib + Navitoclax (first compound 0.03 µM). Moreover, the relative viability with Omipalisib + Tozasertib (first compound 0.0003 µM) was 0.342; in the experiment with Omipalisib + Tozasertib (first compound 0.003 µM), 0.295; with Omipalisib + Tozasertib (first compound 0.03 µM) it was 0.265; with Omipalisib + Crizotinib (first compound 0.0003 µM), 0.425; in the experiment with Omipalisib + Crizotinib (first compound 0.003 µM), 0.263; with Omipalisib + Crizotinib (first compound 0.03 µM) it was 0.283. Also, the relative viability with Omipalisib + AZD7762 (first compound 0.0003 µM) is 0.278; with Omipalisib + AZD7762 (first compound 0.003 µM), 0.227; with Omipalisib + AZD7762 (first compound 0.03 µM) it was 0.223; in the experiment with Omipalisib + Olaparib (first compound 0.0003 µM), 0.384; with Omipalisib + Olaparib (first compound 0.003 µM), 0.242; with Omipalisib + Olaparib (first compound 0.03 µM), 0.143.

On to NCI-H2347, for which the relative viability was found to be 0.45 with Omipalisib + Pemetrexed (first compound 0.0003 µM); 0.484 with Omipalisib + Pemetrexed (first compound 0.003 µM); 0.445 with Omipalisib + Pemetrexed (first compound 0.03 µM); 0.764 in the experiment with Omipalisib + Navitoclax (first compound 0.0003 µM); 0.671 with Omipalisib + Navitoclax (first compound 0.003 µM); 0.278 with Omipalisib + Navitoclax (first compound 0.03 µM). Also, the relative viability worked out at 0.66 in the experiment with Omipalisib + Tozasertib (first compound 0.0003 µM); 0.378 with Omipalisib + Tozasertib (first compound 0.003 µM); 0.211 with Omipalisib + Tozasertib (first compound 0.03 µM); 0.827 in the experiment with Omipalisib + Crizotinib (first compound 0.0003 µM); 0.685 with Omipalisib + Crizotinib (first compound 0.003 µM); 0.293 in the experiment with Omipalisib + Crizotinib (first compound 0.03 µM). Moreover, the relative viability worked out at 0.843 with Omipalisib + AZD7762 (first compound 0.0003 µM); 0.529 with Omipalisib + AZD7762 (first compound 0.003 µM); 0.375 with Omipalisib + AZD7762 (first compound 0.03 µM); 0.527 with Omipalisib + Olaparib (first compound 0.0003 µM); 0.514 with Omipalisib + Olaparib (first compound 0.003 µM); 0.407 with Omipalisib + Olaparib (first compound 0.03 µM).

NCI-H2170: the relative viability in the experiment with Omipalisib + Pemetrexed (first compound 0.0003 µM) was 0.26; with Omipalisib + Pemetrexed (first compound 0.003 µM), 0.262; with Omipalisib + Pemetrexed (first compound 0.03 µM) it was 0.253; with Omipalisib + Navitoclax (first compound 0.0003 µM), 0.414; with Omipalisib + Navitoclax (first compound 0.003 µM), 0.28; with Omipalisib + Navitoclax (first compound 0.03 µM), 0.222. Also, the relative viability in the experiment with Omipalisib + Tozasertib (first compound 0.0003 µM) came out at 0.607; with Omipalisib + Tozasertib (first compound 0.003 µM), 0.482; in the experiment with Omipalisib + Tozasertib (first compound 0.03 µM) it was 0.354; with Omipalisib + Crizotinib (first compound 0.0003 µM) it was 1.04; with Omipalisib + Crizotinib (first compound 0.003 µM), 0.786; with Omipalisib + Crizotinib (first compound 0.03 µM) it was 0.418. Moreover, the relative viability with Omipalisib + AZD7762 (first compound 0.0003 µM) was found to be 0.684; in the experiment with Omipalisib + AZD7762 (first compound 0.003 µM), 0.376; with Omipalisib + AZD7762 (first compound 0.03 µM), 0.375; with Omipalisib + Olaparib (first compound 0.0003 µM), 0.534; in the experiment with Omipalisib + Olaparib (first compound 0.003 µM), 0.456; in the experiment with Omipalisib + Olaparib (first compound 0.03 µM) it was 0.226.

Regarding PC-3 [JPC-3], the relative viability with Omipalisib + Pemetrexed (first compound 0.0003 µM) stood at 1.03; with Omipalisib + Pemetrexed (first compound 0.003 µM), 1.12; in the experiment with Omipalisib + Pemetrexed (first compound 0.03 µM), 0.89; with Omipalisib + Navitoclax (first compound 0.0003 µM) it was 0.781; with Omipalisib + Navitoclax (first compound 0.003 µM), 0.76; with Omipalisib + Navitoclax (first compound 0.03 µM), 0.646. The relative viability with Omipalisib + Tozasertib (first compound 0.0003 µM) is 1.01; with Omipalisib + Tozasertib (first compound 0.003 µM), 0.856; with Omipalisib + Tozasertib (first compound 0.03 µM) it was 0.625; with Omipalisib + Crizotinib (first compound 0.0003 µM) it was 0.922; with Omipalisib + Crizotinib (first compound 0.003 µM), 1; with Omipalisib + Crizotinib (first compound 0.03 µM), 0.889. Besides, the relative viability in the experiment with Omipalisib + AZD7762 (first compound 0.0003 µM) turned out to be 0.73; with Omipalisib + AZD7762 (first compound 0.003 µM) it was 0.685; with Omipalisib + AZD7762 (first compound 0.03 µM), 0.424; with Omipalisib + Olaparib (first compound 0.0003 µM), 1.05; with Omipalisib + Olaparib (first compound 0.003 µM), 1.16; in the experiment with Omipalisib + Olaparib (first compound 0.03 µM), 0.915.

Consider NCI-H1355, for which the relative viability is 1.01 with Omipalisib + Pemetrexed (first compound 0.0003 µM); 0.868 with Omipalisib + Pemetrexed (first compound 0.003 µM); 0.52 in the experiment with Omipalisib + Pemetrexed (first compound 0.03 µM); 0.931 with Omipalisib + Navitoclax (first compound 0.0003 µM); 0.538 in the experiment with Omipalisib + Navitoclax (first compound 0.003 µM); 0.343 in the experiment with Omipalisib + Navitoclax (first compound 0.03 µM). Besides, the relative viability is 0.493 in the experiment with Omipalisib + Tozasertib (first compound 0.0003 µM); 0.409 in the experiment with Omipalisib + Tozasertib (first compound 0.003 µM); 0.21 with Omipalisib + Tozasertib (first compound 0.03 µM); 0.999 in the experiment with Omipalisib + Crizotinib (first compound 0.0003 µM); 0.653 in the experiment with Omipalisib + Crizotinib (first compound 0.003 µM); 0.327 with Omipalisib + Crizotinib (first compound 0.03 µM). In addition, the relative viability with Omipalisib + AZD7762 (first compound 0.0003 µM) is 0.699; with Omipalisib + AZD7762 (first compound 0.003 µM) it was 0.571; in the experiment with Omipalisib + AZD7762 (first compound 0.03 µM), 0.358; in the experiment with Omipalisib + Olaparib (first compound 0.0003 µM), 0.731; with Omipalisib + Olaparib (first compound 0.003 µM) it was 0.52; in the experiment with Omipalisib + Olaparib (first compound 0.03 µM), 0.278.
